Laboratory results published in patent publication US20120083473A1, “TREATMENT OF CONDITIONS BY TOLL-LIKE RECEPTOR MODULATORS” (priority 2010, published 2012).
“Also recorded” adds a separate entry of the source.

Tested on: rat collagen-induced arthritis (CIA) model
Test: Rat collagen-induced arthritis (CIA) model
Assay type: in vivo
Settings: for day of definite disease onset / bone erosion score / cumulative arthritis score / cartilage erosion score / joint inflammation score / proteoglycan loss score: mean±SD; for cartilage erosion score / joint inflammation score / proteoglycan loss score: scale 0-3
Method: Collagen-induced arthritis was induced in 9 weeks old female Lewis rats using a two-steps immunization protocol. On day 0, rats were immunized by intradermal injection of approximately 1 ml of 1 mg/ml bovine type II collagen (Chondrex) emulsified in Incomplete Freund's adjuvant (Difco Laboratories) at several sites at the back. Arthritis development was accelerated by an intradermal booster immunization in the back and tail-base with 100 µg bovine type II collagen (Chondrex) in IFA (Difco Laboratories) at day 7. For immunization, rats were anesthetized by inhalation of 3-4% isoflurane in a mixture of oxygen and nitrous oxide.
Rats were evaluated 6 times per week (once during weekends) for arthritis severity using a macroscopic scoring system of 0-4 for each paw as detailed below:
0=no signs of arthritis 0.5=unloading of the paw and/or light redness of ankle joint 1=redness and mild swelling of the ankle joint 2=redness and swelling of paw 3=severe redness and swelling of entire paw including digits 4=maximally swollen paw, often involvement of multiple joints and extending toward knee joint.
The total clinical score of an individual rat is defined as the sum of the clinical scores of all four paws for each day. At the end of the study, the cumulative arthritis score was calculated for each rat. This cumulative arthritis score is defined as the sum of the total clinical scores obtained from day 0 till day 24.
The day of disease is defined as the first day of three consecutive days on which a total clinical arthritis score of more than 0 was observed.
The swelling of the hind paws was measured during weekdays with a laser scan micrometer (Mitutoyo, LSM-503S/6200). At the end of the study, the cumulative paw swelling was calculated for each rat as follows: a baseline value was determined by averaging the paw thickness values of day 0-9 when no signs of arthritis were visible in the vehicle-treated group. Next, increase in paw thickness was calculated by subtracting the baseline value from the paw thickness values obtained on day 10-24 (delta value). Cumulative paw swelling is defined as the sum of the delta paw thickness values from day 10 till 24.
Left ankle joints were decalcified in a solution of 10% EDTA in distilled water, pH 7.4 for at least two months. After a wash in running tap water for 24 hours, the joints were embedded in paraffin and cut into 5 μm sections.
Joint inflammation was scored on Haematoxylin Phloxine Saffron (HPS) stained sections. The inflammation score is based on the amount of inflammatory cells infiltrated into the joint on a scale of 0-3:
0=no inflammation 1=inflammatory cells in muscle layer (surrounding tissue) 2=infiltration of inflammatory cells in the joint 3=severe infiltration of inflammatory cells in the joint
Cartilage erosion was also scored on HPS stained sections. Erosion was scored in three compartments between tarsal bones and the tibia bone as the disappearance of cartilage or chondrocyte death on a scale of 0-3:
0=no erosion 1=erosion in 1 joint compartment 2=erosion in 2 joint compartments 3=erosion in 3 joint compartments
Proteoglycan (PG) loss was scored on Saffranin 0/Fast green-stained sections on a scale of 0-3, indicating increasing loss of staining from the cartilage tissue:
0=no PG loss 1=1-33% loss of PG staining 2=34-66% loss of PG staining 3=67%-complete loss of PG staining
Bone erosion was scored on HPS stained sections. Erosion was scored at four different locations in two compartments as the number of osteoclasts per field (average value is given in Appendix 8): […]

Structure (SMILES): COCCOc1nc(N)c2nc(O)n(Cc3ccc(C(=O)NCCOCCOCCOCCOCCOCCOCCn4cc(CCC(=O)O)nn4)cc3)c2n1 [Compound 2]
- day on which disease incidence of 100% was reached (1.6 mg/kg): 11 days
- day of definite disease onset (1.6 mg/kg i.p. once daily from day 10): 10.3 ± 0.5 days
- bone erosion score (1.6 mg/kg): 0.63±0.17
- cumulative arthritis score (1.6 mg/kg): 77.3±11.9 a.u.
- cartilage erosion score (1.6 mg/kg): 2.09±0.65
- joint inflammation score (1.6 mg/kg): 2.69±0.37
- proteoglycan loss score (1.6 mg/kg): 2.41±0.40
- day on which disease incidence of 100% was reached (3.2 mg/kg): 13 days
- day of definite disease onset (3.2 mg/kg i.p. once daily from day 10): 10.4 ± 1.1 days
- bone erosion score (3.2 mg/kg): 0.62±0.09
- cumulative arthritis score (3.2 mg/kg): 83.3±12.2 a.u.
- cartilage erosion score (3.2 mg/kg): 2.34±0.68
- joint inflammation score (3.2 mg/kg): 2.66±0.33
- proteoglycan loss score (3.2 mg/kg): 2.53±0.21
- day on which disease incidence of 100% was reached (6.3 mg/kg): 11 days
- day of definite disease onset (6.3 mg/kg i.p. once daily from day 10): 10.4 ± 0.5 days
- bone erosion score (6.3 mg/kg): 0.69±0.13
- cumulative arthritis score (6.3 mg/kg): 81.1±14.6 a.u.
- cartilage erosion score (6.3 mg/kg): 2.06±0.65
- joint inflammation score (6.3 mg/kg): 2.69±0.32
- proteoglycan loss score (6.3 mg/kg): 2.47±0.34
- day on which disease incidence of 100% was reached (12.6 mg/kg): 15 days
- day of definite disease onset (12.6 mg/kg i.p. once daily from day 10): 11.5 ± 2.0 days
- total clinical arthritis score versus vehicle, end of the study (12.6 mg/kg, day 22, 23 and 24 (p=0.036, p=0.017, p=0.044)): statistically exceeded that of the vehicle group
- joint inflammation score (12.6 mg/kg, left ankle histology): 2.41±0.42
- cumulative arthritis score (12.6 mg/kg, day 0 till day 24): 77.6±19.9 a.u.
- bone erosion score (12.6 mg/kg, osteoclast score 0-3): 0.56±0.14
- cumulative hind paw swelling versus vehicle (12.6 mg/kg, p=0.003 left, p=0.004 right hind paw): significantly reduced; also recorded: reduction
- proteoglycan loss versus vehicle (12.6 mg/kg, p=0.026): significantly diminished; also recorded: significant suppression
- cartilage erosion score (12.6 mg/kg): 1.81±0.91
- proteoglycan loss score (12.6 mg/kg): 1.97±0.59
- clinical signs of arthritis / total clinical arthritis score versus vehicle, initial phase (12.6 mg/kg, significant on day 13 and 16 (p=0.018, p=0.011)): initially suppressed
- development of clinical signs of arthritis over time (6.3, 3.2 and 1.6 mg/kg groups): comparable to the vehicle group
- arthritis development compared to the vehicle group (6.3, 3.2 or 1.6 mg/kg): did not significantly reduce
- paw thickness (Compound 2 12.6, 6.3, 3.2, 1.6 mg/kg): dose-dependent reduction
- disease incidence (all Compound 2 groups (12.6, 6.3, 3.2, 1.6 mg/kg), till the end of the study): 100%
- body weight (different concentrations Compound 2): decreased gradually after disease onset, which was similar to the vehicle group
- arthritis development (highest dose level (12.6 mg/kg), therapeutic i.p. from day 10): limited suppression
- hind paw swelling versus vehicle (other Compound 2 dose groups (6.3, 3.2, 1.6 mg/kg)): no significant differences
